Laboratory results as given in paper PMC4335872, “Pharmacokinetic-Pharmacodynamic Analysis of Spiroindolone Analogs and KAE609 in a Murine Malaria Model” (Antimicrobial Agents and Chemotherapy, 2015).

Key:
[1] = Intrinsic clearance in mouse liver microsomes; type: in vitro ADME; details: per mg protein
Description: (§1) page 5: Running title: PreclinicalPK -PD of antimalarials 73 to high through put form at using in- house standard assa y protocols that are described in the 74 literature. 75 (a)HT-Equilibrium solubilit y at pH 6.8( 1); (b)Parallel Artificial Membrane P ermeability Assa y 76 expressed in % fraction absorbed (FA) ( 2,3 ); (c)Apparent permeability from apical to […] 78 tested; (d)intrinsic clearance in mouse liver micro somes ex pressed as µ L/ min/mg protein, in 79 the presen ce of liver enzym es ( 6); (e)Mous e plasm a protein binding using rapid equilibrium […] 81 82 83 84 85 86 87 88 89 90 91 92 93 94 95 96 97 98 5

[2] = RBC to plasma partitioning; type: in vitro ADME; details: mean from 1 µM & 10 µM
Description: page 5: Running title: PreclinicalPK -PD of antimalarials 73 to high through put form at using in- house standard assa y protocols that are described in the 74 literature. […] 81 82 83 84 85 86 87 88 89 90 91 92 93 94 95 96 97 98 5

[3] = In vivo PK after single p.o. and i.v. dosing in CD-1 mice; set-up: species or system female CD-1 mice; details: CD-1 mice; for CL / Vss / t1/2 (i.v.): i.v. 5 mg/kg; for F (oral bioavailability): oral 25 mg/kg vs i.v. 5 mg/kg; for AUC0–24 / Tmax / t1/2 (oral) / Cmax: single oral dose 25 mg/kg; for Cmax: plasma
Experimental: The Institutional Animal Care and Use Committee (IACUC) of the Novartis Institute for Tropical Diseases (NITD), registered with the Agri-Food and Veterinary authority (AVA), Government of Singapore, reviewed and approved all animal experimental protocols. […] The mice were allowed to acclimate before the initiation of the experiments. Feed and water were given ad libitum. […] The blood samples from the mice were collected at 0.02 (for i.v. only), 0.08, 0.25, 0.5, 1, 2, 4, 8, 16, and 24 h postdosing. The dose proportionality studies were conducted with KAE609. […] Additional samples were collected at 32 h and 48 h postdose for the 1- and 5-mg/kg dose groups and up to 72 h postdose for the 100-mg/kg dose group. Groups of three mice were used for each time point. Blood was centrifuged at 13,000 rpm for 7 min at 4°C, and plasma was harvested and stored at -20°C until analysis. […] After vortexing and centrifuging the mixture, the supernatant was removed and 5 μl of sample analyzed. Analyte quantitation was performed by high-performance liquid chromatography coupled with tandem mass spectrometry (LC-MS/MS). […] Instrument control and data acquisition were performed using the Applied Biosystems software Analyst 1.4.2. […] Multiple-reaction monitoring (MRM) was combined with optimized MS parameters to maximize detection specificity and sensitivity. The most intense MRM transitions [338.3/295.1 for (+)-1, 370.1/327.0 for (+)-2, 370.0/326.9 for (+)-3, 354.1/310.8 for (+)-4, 354.1/311.2 for (+)-5, 372.1/329.1 for (+)-6, 388.0/331.8 for (+)-7, 372.1/316.1 for (-)-6, and 388/332 for (-)-7] were used for quantitation. Most compounds were analyzed using electrospray ionization in the negative mode, except (+)-1, which was analyzed using positive mode. The recovery of the compounds from plasma was good and consistent across the concentration range studied. The lower limits of quantification for different compounds ranged from 1.3 to 70 ng/ml in plasma. A calibration curve was freshly prepared and analyzed with every set of study samples. Intraday variability was established with triplicate quality control samples at three concentration levels. The results were accepted if relative standard deviation was <15%. The mean values of the compound concentrations in plasma were obtained from three animals at each time point and plotted against time to generate concentration-time profiles. […] The oral bioavailability (F) was calculated as the ratio between the area under the concentration-time curve from 0 to infinity (AUC0-∞) following oral administration and the AUC0-∞ following intravenous administration corrected for dose (F = […].).

[4] = Parallel artificial membrane permeability assay (PAMPA); type: in vitro ADME; details: % fraction absorbed
Description: as §1

| SMILES | Hepatic CLint in mouse liver microsomes [1] [µL/min/mg] | RBC to Plasma Ratio [2] | CL [3] [mL/min/kg] | Vss [3] [L/kg] | t1/2 (i.v.) [3] [h] | F (oral bioavailability) [3] [%] | AUC0–24 [3] [µg·h/mL] | Tmax [3] [h] | t1/2 (oral) [3] [h] | Cmax [3] [µg/mL] | PAMPA %FA [4] [%] |
| --- | --- | --- | --- | --- | --- | --- | --- | --- | --- | --- | --- |
| C[C@H]1Cc2c([nH]c3ccc(Cl)cc23)[C@@]2(N1)C(=O)Nc1ccc(Cl)cc12 [(+)-2] | 92 | 0.77 | 92.6 | 9.9 | 4.6 | 62 | 2.9 | 1 | 4.3 | 0.6 |  |
| C[C@H]1Cc2c([nH]c3cc(Cl)ccc23)[C@@]2(N1)C(=O)Nc1ccc(Cl)cc12 [(+)-3] | 35 | 0.93 | 60.1 | 13.7 | 4.3 | 91 | 5.8 | 2 | 6.2 | 0.7 |  |
| C[C@H]1Cc2c([nH]c3ccc(F)cc23)[C@@]2(N1)C(=O)Nc1ccc(Cl)cc12 [(+)-4] | 330 | 0.62 | 24.0 | 1.9 | 4.7 | 26 | 3.9 | 0.25 | 5.6 | 1.0 | 97 |
| C[C@H]1Cc2c([nH]c3cc(F)ccc23)[C@@]2(N1)C(=O)Nc1ccc(Cl)cc12 [(+)-5] | 26 | 1.18 | 11.8 | 1.6 | 3.8 | 47 | 17.7 | 0.25 | 4.0 | 3.1 |  |
| C[C@H]1Cc2c([nH]c3cc(F)c(F)cc23)[C@@]2(N1)C(=O)Nc1ccc(Cl)cc12 [(+)-6] | 41 | 1.12 | 8.5 | 1.6 | 2.9 | 53 | 26.8 | 2 | 3.2 | 3.1 |  |
| C[C@@H]1Cc2c([nH]c3cc(F)c(F)cc23)[C@]2(N1)C(=O)Nc1ccc(Cl)cc12 [(−)-6] | 36 | 0.81 | 4.2 | 2.8 | 13.2 | 78 | 68.2 | 2 | 7.9 | 5 | 97 |
| C[C@@H]1Cc2c([nH]c3cc(Cl)c(F)cc23)[C@]2(N1)C(=O)Nc1ccc(Cl)cc12 [(−)-7] | 21 | 0.52 | 2.6 | 1.3 | 5.6 | 92 | 107.3 | 1 | 9.1 | 8.3 |  |
